This note sets out measurements from patent US8921358B2, “Apoptosis signal-regulating kinase 1 inhibitors” (Takeda Pharmaceutical Company Limited, priority 2008, dated 2014).

As a reminder, the pIC50 is the IC50 on a negative log10 scale, so that one unit is a factor of ten.

For this experiment, the target named is T1, human ASK1 (Homo sapiens, UniProt Q99683).
T1 construct: a 2.2 kb DNA fragment containing an ASK1 gene was recovered from the gel; made in house; host or cells: Sf-21 insect cells, recombinant baculovirus (pFASTBAC1, Bac-to-Bac)
T1 sequence (Q99683 649-1374 limits assumed): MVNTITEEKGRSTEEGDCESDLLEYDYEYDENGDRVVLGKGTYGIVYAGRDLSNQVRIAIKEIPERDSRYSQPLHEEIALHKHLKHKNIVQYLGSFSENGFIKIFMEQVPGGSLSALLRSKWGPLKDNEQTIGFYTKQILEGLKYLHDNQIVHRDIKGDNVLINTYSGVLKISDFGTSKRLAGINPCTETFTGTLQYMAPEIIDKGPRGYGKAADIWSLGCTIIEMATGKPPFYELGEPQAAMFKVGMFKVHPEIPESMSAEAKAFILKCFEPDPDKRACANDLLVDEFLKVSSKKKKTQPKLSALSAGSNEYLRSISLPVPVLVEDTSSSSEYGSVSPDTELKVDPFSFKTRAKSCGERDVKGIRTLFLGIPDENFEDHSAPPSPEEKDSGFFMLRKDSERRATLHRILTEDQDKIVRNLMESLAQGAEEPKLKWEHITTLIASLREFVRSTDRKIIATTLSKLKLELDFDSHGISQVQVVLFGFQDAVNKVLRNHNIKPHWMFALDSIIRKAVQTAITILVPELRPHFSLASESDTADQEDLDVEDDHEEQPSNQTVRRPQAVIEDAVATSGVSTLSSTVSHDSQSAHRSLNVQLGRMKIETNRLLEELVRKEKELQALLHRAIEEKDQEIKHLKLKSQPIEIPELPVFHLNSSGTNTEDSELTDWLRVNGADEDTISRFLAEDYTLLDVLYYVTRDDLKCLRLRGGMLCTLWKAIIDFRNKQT
In words: Scintillation assay measuring inhibition of ASK1 phosphorylation of myelin basic protein. The conditions noted are these: active ASK1 protein 30 ng, myelin basic protein 1 μg, [γ-32P]ATP, room temperature 30 min; values given as ranges; read-out: Enzyme Activity IC50. Type of experiment: biochemical. How it is done: Cloning of cDNA encoding human ASK1 was conducted by PCR using primers, 5′-[…] AGAGAAGGGGA-3′ (SEQ ID NO: 1) and 5′-[…]-3′ (SEQ ID NO: 2), from human heart cDNA library (Becton, Dickinson and Company). The PCR product was subjected to agarose gel (1%) electrophoresis, a 2.2 kb DNA fragment containing an ASK1 gene was recovered from the gel, and then digested with restriction enzymes, NotI and SalI, and inserted into a plasmid pFASTBAC1 (Invitrogen) to prepare a plasmid pFB-ASK1. The insert was verified by sequencing. Recombinant baculovirus was prepared according to the procedure of the Bac-to-Bac baculovirus expression system (Invitrogen).
Sf-21 cells were seeded to achieve 1×10^6 cells/mL in 100 mL of Sf-900 II SFM medium (Invitrogen) which contains 10% fetal calf serum and then cultured at 27° C. for 24 hrs. To express ASK1 in cells, 0.15 mL of the recombinant baculovirus virus stock was added to cells, and the then cultured for 60 hrs. The cells were separated from the culture solution by centrifugation at 3000 rpm for 10 min and washed once with PBS. The cells were suspended in 10 mL of lysis buffer (25 mM HEPES (pH 7.5), 1% Triton X, 130 mM NaCl, 1 mM EDTA, 1 mM DTT, 25 mM β-glycerophosphate, Protease inhibitor complete (Roche), 1 mM sodium orthovanadate) and ruptured by four times of treatment with a homogenizer (POLYTRON) at 20000 rpm for 30 seconds. Active ASK1 protein was purified from a supernatant obtained by centrifugal separation at 40000 rpm for 45 min using anti-FLAG M2 Affinity Gel (Sigma).
The test compounds (2.5 μl) dissolved in DMSO were added to wells containing 37.5 μl of the reaction solution (25 mM HEPES (pH 7.5), 10 mM magnesium acetate, 1 mM DTT) including 30 ng of active ASK1 protein and 1 μg of myelin basic protein (Wako), and incubated at room temperature for 5 min. To start the reaction, 10 μL of ATP solution (2.5 μM ATP, 0.1 μCi [γ-^32P]ATP) was added to wells. After incubating at room temperature for 30 min, the reaction was terminated by adding 50 μl of 20% TCA solution. The reaction solution was incubated at 4° C. for 30 min and an acid-insoluble fraction was transferred onto a GF/C filter (Packard) with Cell Harvester (Packard), and washed with 250 mM phosphoric acid. After drying at 45° C. for 60 min., 40 μL of Microscint 0 (Packard) was added and the radioactivity was measured with TopCount (Packard). The concentrations (IC50 value) of the test compounds necessary for 50% inhibition of kinase activity were calculated by PRISM 3.0 (Graphpad Software).
The enzyme activities of selected compounds of the present invention against ASK1 were determined using the assay disclosed in Example A and B. The resulted pIC50 values are reported in Table 1.

pIC50: −log10 of the molar value.

For the molecule `CC(C)(O)c1ccc(C(=O)Nc2cc(N3CCC[C@H]3CO)n3nccc3n2)cc1` [Compound 67, (S)—N-(7-(2-(hydroxymethyl)pyrrolidin-1-yl)pyrazolo[1,5-a]pyrimidin-5-yl)-4-(2-hydroxypropan-2-yl)benzamide], the pIC50 is 6.00 to 7.00.
Consider `CC(C)(O)c1ccc(C(=O)Nc2cc(N3CC[C@H](O)C3)n3nccc3n2)cc1` [Compound 70, (S)-4-(2-hydroxypropan-2-yl)-N-(7-(3-hydroxypyrrolidin-1-yl)pyrazolo[1,5-a]pyrimidin-5-yl)benzamide], for which the pIC50 was 6.00 to 7.00.
The result for `COc1ccc(-c2cc(NC(=O)c3ccc(C(C)(C)C)cc3)nc3ccnn23)cc1` [Compound 9, 4-tert-Butyl-N-(7-(4-methoxyphenyl)pyrazolo[1,5-a]pyrimidin-5-yl)benzamide] reads above 7.00; that for `CC(C)(O)c1ccc(C(=O)Nc2cc(N3CCC(CCO)CC3)n3nccc3n2)cc1` [Compound 71, N-(7-(4-(2-hydroxyethyl)piperidin-1-yl)pyrazolo[1,5-a]pyrimidin-5-yl)-4-(2-hydroxypropan-2-yl)benzamide], above 7.00.
For `Cc1ccc(-c2cc(NC(=O)c3ccc(C(C)(C)O)cc3)nc3ccnn23)cc1` [Compound 20, 4-(2-Hydroxypropan-2-yl)-N-(7-p-tolylpyrazolo[1,5-a]pyrimidin-5-yl)benzamide], the pIC50 is above 7.00.
The result for `Cc1cc2nc(NC(=O)c3ccc(C(C)(C)C)cc3)cc(-c3cccc(CCCO)c3)n2n1` [Compound 3, 4-(tert-butyl)-N-(7-(3-(3-hydroxypropyl)phenyl)-2-methylpyrazolo[1,5-a]pyrimidin-5-yl)benzamide] reads above 7.00; that for `CC(C)(O)c1ccc(C(=O)Nc2cc(N3CCc4[nH]ncc4C3)n3nccc3n2)cc1` [Compound 79, N-(7-(6,7-dihydro-1H-pyrazolo[4,3-c]pyridin-5(4H)-yl)pyrazolo[1,5-a]pyrimidin-5-yl)-4-(2-hydroxypropan-2-yl)benzamide], 6.00 to 7.00; that for `Cc1cc2nc(NC(=O)c3ccc(C(C)(C)CO)cc3)cc(-c3ccccc3)n2n1` [Compound 29, 4-(1-hydroxy-2-methylpropan-2-yl)-N-(2-methyl-7-phenylpyrazolo[1,5-a]pyrimidin-5-yl)benzamide], above 7.00.
The result for `CC(C)(C)c1ccc(C(=O)Nc2cc(N3CCC[C@H](O)C3)n3nccc3n2)cc1` [Compound 75, (S)-4-tert-butyl-N-(7-(3-hydroxypiperidin-1-yl)pyrazolo[1,5-a]pyrimidin-5-yl)benzamide] reads 6.00 to 7.00; that for `CC(C)(O)c1ccc(C(=O)Nc2cc(N3CCNC(=O)CC3)n3nccc3n2)cc1` [Compound 93, 4-(2-hydroxypropan-2-yl)-N-(7-(5-oxo-1,4-diazepan-1-yl)pyrazolo[1,5-a]pyrimidin-5-yl)benzamide], 6.00 to 7.00; that for `CC(C)(O)c1ccc(C(=O)Nc2cc(-c3ccc(C(F)(F)F)cc3)n3nccc3n2)cc1` [Compound 24, 4-(2-hydroxypropan-2-yl)-N-(7-(4-(trifluoromethyl)phenyl)pyrazolo[1,5-a]pyrimidin-5-yl)benzamide], 6.00 to 7.00.
The result for `CC(C)(C)c1ccc(C(=O)Nc2cc(N3CCC[C@@H](O)C3)n3nccc3n2)cc1` [Compound 77, (R)-4-tert-butyl-N-(7-(3-hydroxypiperidin-1-yl)pyrazolo[1,5-a]pyrimidin-5-yl)benzamide] reads above 7.00; that for `CC(=O)Nc1ccc(-c2cc(NC(=O)c3ccc(C(C)(C)C)cc3)nc3ccnn23)cn1` [Compound 14, N-(7-(6-Acetamidopyridin-3-yl)pyrazolo[1,5-a]pyrimidin-5-yl)-4-tert-butylbenzamide], 6.00 to 7.00.
Turning to `Cc1cc2nc(NC(=O)c3ccc(C(C)(C)CO)cc3)cc(N3CCC[C@H]3CO)n2n1` [Compound 95, (S)-4-(1-hydroxy-2-methylpropan-2-yl)-N-(7-(2-(hydroxymethyl)pyrrolidin-1-yl)-2-methylpyrazolo[1,5-a]pyrimidin-5-yl)benzamide], the pIC50 is 6.00 to 7.00.
The result for `CSc1ccc(-c2cc(NC(=O)c3ccc(C(C)(C)O)cc3)nc3ccnn23)cc1` [Compound 23, 4-(2-hydroxypropan-2-yl)-N-(7-(4-(methylthio)phenyl)pyrazolo[1,5-a]pyrimidin-5-yl)benzamide] reads above 7.00; that for `Cc1cc2nc(NC(=O)c3ccc(C(C)(C)C)cc3)cc(-c3cccc(CO)c3)n2n1` [Compound 1, 4-tert-butyl-N-(7-(3-(hydroxymethyl)phenyl)-2-methylpyrazolo[1,5-a]pyrimidin-5-yl)benzamide], above 7.00; that for `CC(C)(C)c1ccc(C(=O)Nc2cc(-c3cccc(CO)c3)n3nccc3n2)cc1` [Compound 5, 4-tert-butyl-N-(7-(3-(hydroxymethyl)phenyl)pyrazolo[1,5-a]pyrimidin-5-yl)benzamide], above 7.00.
The result for `CC(C)(O)c1ccc(C(=O)Nc2cc(N3CCN(S(C)(=O)=O)CC3)n3nccc3n2)cc1` [Compound 90, 4-(2-hydroxypropan-2-yl)-N-(7-(4-(methylsulfonyl)piperazin-1-yl)pyrazolo[1,5-a]pyrimidin-5-yl)benzamide] reads 6.00 to 7.00; that for `CC(C)(O)c1ccc(C(=O)Nc2cc(N3CCn4cnnc4C3)n3nccc3n2)cc1` [Compound 91, N-(7-(5,6-dihydro-[1,2,4]triazolo[4,3-a]pyrazin-7(8H)-yl)pyrazolo[1,5-a]pyrimidin-5-yl)-4-(2-hydroxypropan-2-yl)benzamide], below 6.00.
Regarding `CC(C)(O)c1ccc(C(=O)Nc2cc(N3CC[C@@H](O)C3)n3nccc3n2)cc1` [Compound 69, (R)-4-(2-hydroxypropan-2-yl)-N-(7-(3-hydroxypyrrolidin-1-yl)pyrazolo[1,5-a]pyrimidin-5-yl)benzamide], the negative logarithm of the IC50 (pIC50) was 6.00 to 7.00.
The result for `CC(=O)c1cccc(-c2cc(NC(=O)c3ccc(C(C)(C)C)cc3)nc3ccnn23)c1` [Compound 12, N-(7-(3-Acetylphenyl)pyrazolo[1,5-a]pyrimidin-5-yl)-4-tert-butylbenzamide] reads below 6.00.
The result for `CC(C)(O)c1ccc(C(=O)Nc2cc(N3CCC[C@@H]3CO)n3nccc3n2)cc1` [Compound 68, (R)—N-(7-(2-(hydroxymethyl)pyrrolidin-1-yl)pyrazolo[1,5-a]pyrimidin-5-yl)-4-(2-hydroxypropan-2-yl)benzamide] reads 6.00 to 7.00; that for `Cc1cc2nc(N)cc(-c3cccc(CO)c3)n2n1` [Compound 173, (3-(5-amino-2-methylpyrazolo[1,5-a]pyrimidin-7-yl)phenyl)methanol], below 6.00.
The result for `Cc1cc2nc(NC(=O)[C@@H]3C[C@H]3c3ccc(F)cc3)cc(-c3ccccc3)n2n1` (racemic) [Compound 359, trans-2-(4-Fluorophenyl)-N-(2-methyl-7-phenylpyrazolo[1,5-a]pyrimidin-5-yl)cyclopropanecarboxamide] reads above 7.00.
